In US20030228256A1, “Methods of achieving transplantation tolerance through radioablation of hemolymphopoietic cell populations” (priority 2002, published 2003):
Read-outs that look alike come from different tables or passages of the source.

How the values were obtained:
[1] = tested on: white blood cell counts (WBC), hemolymphopoietic elements; test: Blood counts (WBC, RBC, Hb, PLT) after single IV dose of 153Sm-EDTMP; format: in vivo, C57BL/6 mice; set-up: time at which myelodepression occurred: unit not given here
Method: (§1) Bone marrow-derived Cell Transplantation. Balb/c mice, 8-9 weeks old, used as donors, were sacrificed on the day of the transplant. Bone marrow cells (BMC) were prepared according to a previously published regimen. Briefly, after removing femura and tibiae, and cleaning them from muscle tissue and cartilage, BMC were flushed with sterile RPMI-1640 (Mediatech, Inc, Herndon, Va.) supplemented with 0.8 mg/ml Gentamycin (Gibco, Gaithersburg, Md.), using 23G needle. BMC were filtered through a sterile nylon mesh and counted. Fully MCH-mismatched C57BL/6 recipients, 9-10 weeks of age, were injected intravenously with either 20×10^6 or 100×10^6 unmanipulated BMCs resuspended in 0.5 and 1.0 ml of HBSS Hank's Balanced Saline Solution) (Mediatech) respectively, on either day 7 or 14. Tolerance induction protocol consisted of either 150 or 500 μCi of ^153Sm-EDTMP (Berlex Laboratories Wayne, N.J.), I.V., on day—7, and 0.5 mg hamster anti-murine CD154 mAb (MR-1), purchased from Taconic (Germantown, N.Y.) administered intraperitoneally (I.P.) on days—1,0,7,14, 21 and 28.
Recipient animals (C57BL/6, H-2^b) were treated with a single IV dose of ^153Sm-EDTMP, 150 μCi or 500 μCi, prior to administration of 20×10^6 or 100×10^6 allogenic donor bone marrow cells (BMC) (BALB/c, H-2^d), also administered as a single IV dose. BMC transplantation (BMC-Tx) was performed on day 7 or 14 following the administration of ^153Sm in the presence of transient T lymphocyte co-stimulatory blockade by MR-1 (hamster anti-murine CD154 mAb) on days—1, 0, 7, 14, 21 and 28, 0.5 mg IP. […] Similar data were obtained in animals treated with ^153Sm-EDTMP and not transplanted with allogeneic BMC (not shown). […] No dramatic alterations of RBC, PLT or Hb counts were evident.

[2] = tested on: donor-derived cells (BALB/c BMC) in recipients; test: Hemolymphopoietic chimerism: percentage of donor-derived cells in recipient PBL by flow cytometry after allogeneic BMC-Tx; format: in vivo, C57BL/6 mice
Method: as §1
Immunohemotyping of chimeras. Engraftment of donor-derived BMCs was ascertained by flow cytometric analysis (FCM) of recipient peripheral blood mononuclear cells (PBMCs), splenocytes, thymocytes and bone marrow cells after staining with FITC-conjugated anti-mouse H-2K^b or H-2K^d and Cy-Chrome-conjugated CD3 monoclonal antibodies (mAbs) purchased from PharMingen (San Diego, Calif.) at multiple time points during the experiment as well as at sacrifice. Cells were also assessed for non-specific staining using an Ig isotype control (FITC-conjugated mouse IgG2a and Cy-Chrome-conjugated rat IgG2b), and the percentage of cells stained with this Ab was subtracted from the values obtained from staining with the specific Ab to determine the relative number of positive cells. Reconstitution of various cell lineages was assessed using FITC-conjugated anti-mouse H-2K^b or H-2K^d and PE-conjugated anti-mouse CD19/CD22 in the B cell, PE-conjugated anti-mouse Ly-6G in the granulocyte, and PE-conjugated anti-mouse Mac-3 in the macrophage compartments. Recipient animals were first tested 1 week after BMC-Tx, every 2 weeks up to 6 weeks, and every 4 weeks thereafter. Purified anti-mouse CD16/CD32 (FcγIII/II) was used to block non-specific binding to the Fc receptors. FCM analyses were preformed using CellQuest software on a FACScan cytometer purchased from Becton Dickinson & Co. (Mountain View, Calif.).
Typing of PBL obtained from the recipient animals starting at 2 weeks following the reconstitution with donor-derived BM allogeneic cells, every two weeks up to 6 weeks post-reconstitution, and every 4 weeks afterwards was performed using anti Class I H-2^b-FITC and H-2^d-FITC. Analysis was performed on the lymphoid gate, and the values were normalized to 100%.

[3] = tested on: donor-specific (Balb/c) and third party (C3H) skin grafts
Method: Full-thickness skin donor (Balb/c) and third party (C3H/HeJ) grafts were transplanted onto the lateral thoracic area of the recipients either the day following BMC-Tx, or 4 weeks following the last administration of MR-1 mAb, using techniques described previously. Briefly, square, full-thickness skin grafts (1 cm^2) were prepared from the tail skin of donors. Graft beds were prepared on the right (donor-specific) and left (third party) lateral thoracic wall of recipient mice. Grafts were fixed to the beds with 4 sutures of 5.0 silk at the corners of the graft and covered with a petroleum jelly-coated gauze and a plaster cast. The grafts were first inspected on the eighth-day following grafting, and every third day thereafter. Graft rejection was considered complete when no viable graft tissue was detected by visual inspection. Recipient mice were considered to be tolerant when donor-specific skin grafts survived in perfect condition for <150 days.
Grafts were prepared 30 days following the last administration of anti-CD154 mAb in the treated animals. Two different donor strain combinations, BALB/c (H-2^d), and C3H/J (H-2^k) were used. Each recipient received skin grafts from both strains: donor-type, BALB/c (H-2^d), as well as third-party, C3H/J (H-2^k). […] Grafts were followed for a minimum of 128 days and were considered rejected when viable tissue was no longer detected at the transplant site.

Structure (SMILES): O=P([O-])(O)CN(CCN(CP(=O)([O-])O)CP(=O)(O)O)CP(=O)([O-])O.[153Sm+3] [^153Sm-EDTMP]
- reversibility of myelodepression of the WBC compartment ([1]; in the presence or absence of allogeneic BMC-Tx): spontaneously reversible
- effect on red blood cell (RBC), hemoglobin (Hb) and platelet (PLT) counts ([1]; single IV dose 150 or 500 μCi): does not have significant effect
- time at which myelodepression occurred ([1]; single IV dose 150 or 500 μCi): one
- time by which myelodepression spontaneously resolved ([1]; single IV dose 150 or 500 μCi): 4-6 weeks post-administration
- myelodepression (decreased white blood cell counts) ([1]; single IV dose 150 or 500 μCi, FIG. 1): transient myelodepression
- CD3+ T lymphocytes of donor origin (mixed chimerism of lymphoid lineage) ([2]; 20×10^6 BMC, anti-CD154 mAb, 153Sm-EDTMP 150 or 500 μCi): CD3+ T lymphocytes of donor origin were also present
- chimerism levels with versus without 153Sm administration ([2]; 100×10^6 BMC, anti-CD154 mAb): reproducibly higher
- CD3+ T lymphocytes of donor origin (mixed chimerism of lymphoid lineage) ([2]; 100×10^6 BMC, anti-CD154 mAb, 153Sm-EDTMP 150 or 500 μCi): CD3+ T lymphocytes of donor origin were also present
- BM engraftment ([2]; 100×10^6 BMC, anti-CD154 mAb, 153Sm-EDTMP 150 or 500 μCi, BMC on day 7 or 14, FIG. 2): BM engraftment in all recipient animals analyzed
- chimerism in recipients of allogeneic BMC ([2]; absence of co-stimulatory blockade, 20×10^6 or 100×10^6 BMC, FIGS. 4-5): transient chimerism
- multilineage chimerism (B cells, NK, granulocytes) ([2]; combination of BMC-Tx, 153Sm-EDTMP and anti-CD154 mAb, FIGS. 7 and 8): long-term, stable multilineage chimerism
- chimerism in recipients of allogeneic BMC ([2]; in the presence of costimulatory blockade (anti-CD154 mAb)): long-lasting hemolymphopoietic chimerism
- chimerism across a full allogeneic barrier ([2]; single administration prior to infusion of allogeneic bone marrow-derived cells): high levels of stable long-term chimerism
- effectiveness of lower dose 150 μCi versus higher dose 500 μCi ([2]; with BMC-Tx and MR-1 co-stimulatory blockade): as effective as the higher dose
- influence of 153Sm dose (150 vs 500 μCi) and timing of BMC-Tx on chimerism ([2]; with costimulatory blockade): do not grossly influence the results
- third party (C3H/J) skin graft outcome ([3]; 20×10^6 BMC, 153Sm-EDTMP and anti-CD154 mAb): rejected within the same time frame as were donor-specific grafts placed on naïve recipients
- tolerance to donor-specific skin grafts ([3]; 20×10^6 BMC, 153Sm-EDTMP and anti-CD154 mAb, FIG. 9): tolerance to donor-specific skin grafts is obtained
- third party (C3H/J) skin graft outcome ([3]; 100×10^6 BMC, 153Sm-EDTMP and anti-CD154 mAb): rejected within the same time frame as were donor-specific grafts placed on naïve recipients
- enhancing effect of 153Sm administration on graft survival ([3]; 100×10^6 BMC, anti-CD154 mAb, FIG. 10): lost
- time donor-derived skin grafts were kept ([3]; a large percent of animals, followed up to 31 weeks post bone marrow transplantation, with anti-CD154 mAb): > 150 days
